Publication PMC4620497 (Scientific Reports, 2015)

Legend:
[1] = target: ERBB2 (Homo sapiens, UniProt P04626); parameters: method as in earlier work; settings: Table S1; cited from earlier work
[2] = target: T1, ABL1(F317L)-phosphorylated (Homo sapiens, UniProt P00519, F317L); assay: KINOMEscan panel screen; assay type: binding; settings: read-out: Percent Control(%)
T1 construct: purchased DiscoveRx KINOMEscan (Ambit Biosciences)

[3] = target: T2, ABL2 (Homo sapiens, UniProt P42684); assay: KINOMEscan panel screen; assay type: binding; settings: read-out: Percent Control(%)
T2 construct: purchased DiscoveRx KINOMEscan (Ambit Biosciences)

[4] = target: T3, ADCK4 (Homo sapiens, UniProt Q96D53); assay: KINOMEscan panel screen; assay type: binding; settings: read-out: Percent Control(%)
T3 construct: purchased DiscoveRx KINOMEscan (Ambit Biosciences)

[5] = target: T4, BLK (Homo sapiens, UniProt P51451); assay: KINOMEscan panel screen; assay type: binding; settings: read-out: Percent Control(%)
T4 construct: purchased DiscoveRx KINOMEscan (Ambit Biosciences)

[6] = target: T5, CAMK2D (Homo sapiens, UniProt Q13557); assay: KINOMEscan panel screen; assay type: binding; settings: read-out: Percent Control(%)
T5 construct: purchased DiscoveRx KINOMEscan (Ambit Biosciences)

[7] = target: T6, CASK (Homo sapiens, UniProt O14936); assay: KINOMEscan panel screen; assay type: binding; settings: read-out: Percent Control(%)
T6 construct: purchased DiscoveRx KINOMEscan (Ambit Biosciences)

[8] = target: T7, DCAMKL1 (Homo sapiens, UniProt O15075); assay: KINOMEscan panel screen; assay type: binding; settings: read-out: Percent Control(%)
T7 construct: purchased DiscoveRx KINOMEscan (Ambit Biosciences)

[9] = target: T8, EPHB4 (Homo sapiens, UniProt P54760); assay: KINOMEscan panel screen; assay type: binding; settings: read-out: Percent Control(%)
T8 construct: purchased DiscoveRx KINOMEscan (Ambit Biosciences)

[10] = target: T9, ERK2 (Homo sapiens, UniProt P28482); assay: KINOMEscan panel screen; assay type: binding; settings: read-out: Percent Control(%)
T9 construct: purchased DiscoveRx KINOMEscan (Ambit Biosciences)

[11] = target: T10, ERK4 (Homo sapiens, UniProt P31152); assay: KINOMEscan panel screen; assay type: binding; settings: read-out: Percent Control(%)
T10 construct: purchased DiscoveRx KINOMEscan (Ambit Biosciences)

[12] = target: T11, FES (Homo sapiens, UniProt P07332); assay: KINOMEscan panel screen; assay type: binding; settings: read-out: Percent Control(%)
T11 construct: purchased DiscoveRx KINOMEscan (Ambit Biosciences)

[13] = target: T12, FGFR3(G697C) (Homo sapiens, UniProt P22607, G697C); assay: KINOMEscan panel screen; assay type: binding; settings: read-out: Percent Control(%)
T12 construct: purchased DiscoveRx KINOMEscan (Ambit Biosciences)

[14] = target: T13, GCN2(Kin.Dom.2,S808G) (Homo sapiens, UniProt Q9P2K8, S808G); assay: KINOMEscan panel screen; assay type: binding; settings: read-out: Percent Control(%)
T13 construct: GCN2(Kin.Dom.2,S808G); purchased DiscoveRx KINOMEscan (Ambit Biosciences)

[15] = target: T14, RSK3(Kin.Dom.1-N-terminal) (Homo sapiens, UniProt Q15349); assay: KINOMEscan panel screen; assay type: binding; settings: read-out: Percent Control(%)
T14 construct: RSK3(Kin.Dom.1-N-terminal); purchased DiscoveRx KINOMEscan (Ambit Biosciences)

[16] = target: T15, SRC (Homo sapiens, UniProt P12931); assay: KINOMEscan panel screen; assay type: binding; settings: read-out: Percent Control(%)
T15 construct: purchased DiscoveRx KINOMEscan (Ambit Biosciences)

[17] = target: T16, STK35 (Homo sapiens, UniProt Q8TDR2); assay: KINOMEscan panel screen; assay type: binding; settings: read-out: Percent Control(%)
T16 construct: purchased DiscoveRx KINOMEscan (Ambit Biosciences)

[18] = target: T17, TAOK2 (Homo sapiens, UniProt Q9UL54); assay: KINOMEscan panel screen; assay type: binding; settings: read-out: Percent Control(%)
T17 construct: purchased DiscoveRx KINOMEscan (Ambit Biosciences)

[19] = target: T18, ULK3 (Homo sapiens, UniProt Q6PHR2); assay: KINOMEscan panel screen; assay type: binding; settings: read-out: Percent Control(%)
T18 construct: purchased DiscoveRx KINOMEscan (Ambit Biosciences)

[20] = target: T19, PDGFRβ (Homo sapiens, UniProt P09619); assay: KINOMEscan kinase binding assay (Kd)
T19 construct: purchased Ambit Biosciences (KINOMEscan)

[21] = tested on: normal PBMCs; assay: CellTiterGlo viability assay, normal PBMCs; assay type: cell-based, human; settings: 72 h
Excerpt: The patients’ information is listed in Supplementary Table S5. For comparison, three normal PB samples were also collected (sample #7, #8, #9). Peripheral blood mononuclear cells (PBMCs) were isolated from each sample in the following assays.
Methods used in this study were approved by the Ethics Committee of the West China Hospital. Informed consent for the use of human AML and normal peripheral blood (PB) samples for the present study was obtained from all patients according to the Declaration of Helsinki.
Effects of compounds on the PBMC viability were examined using CellTiterGlo (Promega) assays. […] The signal from the viable cells was assessed according to the manufacturer’s protocol.

[22] = target: FLT3-D835Y (Homo sapiens, UniProt P36888, D835Y); assay: KINOMEscan kinase binding assay (Kd); parameters: purchased Ambit Biosciences (KINOMEscan)

T17 sequence (Q9UL54 whole entry): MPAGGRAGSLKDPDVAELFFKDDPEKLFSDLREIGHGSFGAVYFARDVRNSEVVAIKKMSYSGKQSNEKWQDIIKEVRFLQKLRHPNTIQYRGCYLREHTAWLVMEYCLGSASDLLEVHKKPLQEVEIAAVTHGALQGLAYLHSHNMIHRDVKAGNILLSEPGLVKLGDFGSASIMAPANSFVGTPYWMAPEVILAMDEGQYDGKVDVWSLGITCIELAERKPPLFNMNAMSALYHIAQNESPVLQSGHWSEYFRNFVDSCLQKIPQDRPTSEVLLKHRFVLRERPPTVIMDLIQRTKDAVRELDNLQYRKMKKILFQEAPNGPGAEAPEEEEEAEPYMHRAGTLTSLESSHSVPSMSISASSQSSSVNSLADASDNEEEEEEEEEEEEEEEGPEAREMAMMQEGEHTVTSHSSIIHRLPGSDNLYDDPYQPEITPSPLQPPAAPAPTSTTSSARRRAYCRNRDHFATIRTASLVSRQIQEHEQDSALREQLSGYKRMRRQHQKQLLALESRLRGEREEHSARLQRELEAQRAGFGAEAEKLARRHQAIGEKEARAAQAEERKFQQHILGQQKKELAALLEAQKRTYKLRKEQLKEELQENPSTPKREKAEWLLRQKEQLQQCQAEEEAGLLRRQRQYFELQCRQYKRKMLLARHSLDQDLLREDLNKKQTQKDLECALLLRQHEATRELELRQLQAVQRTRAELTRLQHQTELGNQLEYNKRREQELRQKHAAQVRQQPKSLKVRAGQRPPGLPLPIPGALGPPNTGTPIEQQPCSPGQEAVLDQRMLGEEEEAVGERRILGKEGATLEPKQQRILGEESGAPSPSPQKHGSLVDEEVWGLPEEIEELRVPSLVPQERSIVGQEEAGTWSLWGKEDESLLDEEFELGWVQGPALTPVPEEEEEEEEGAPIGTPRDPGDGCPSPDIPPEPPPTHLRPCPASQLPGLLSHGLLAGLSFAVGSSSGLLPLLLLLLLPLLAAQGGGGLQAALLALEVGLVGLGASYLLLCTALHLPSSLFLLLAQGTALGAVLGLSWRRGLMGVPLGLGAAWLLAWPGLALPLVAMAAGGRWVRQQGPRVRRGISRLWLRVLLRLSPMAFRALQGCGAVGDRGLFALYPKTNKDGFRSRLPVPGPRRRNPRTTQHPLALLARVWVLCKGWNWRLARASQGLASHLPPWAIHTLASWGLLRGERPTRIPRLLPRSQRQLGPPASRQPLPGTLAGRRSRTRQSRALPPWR
Sequence of ERBB2 (P04626 23-1255): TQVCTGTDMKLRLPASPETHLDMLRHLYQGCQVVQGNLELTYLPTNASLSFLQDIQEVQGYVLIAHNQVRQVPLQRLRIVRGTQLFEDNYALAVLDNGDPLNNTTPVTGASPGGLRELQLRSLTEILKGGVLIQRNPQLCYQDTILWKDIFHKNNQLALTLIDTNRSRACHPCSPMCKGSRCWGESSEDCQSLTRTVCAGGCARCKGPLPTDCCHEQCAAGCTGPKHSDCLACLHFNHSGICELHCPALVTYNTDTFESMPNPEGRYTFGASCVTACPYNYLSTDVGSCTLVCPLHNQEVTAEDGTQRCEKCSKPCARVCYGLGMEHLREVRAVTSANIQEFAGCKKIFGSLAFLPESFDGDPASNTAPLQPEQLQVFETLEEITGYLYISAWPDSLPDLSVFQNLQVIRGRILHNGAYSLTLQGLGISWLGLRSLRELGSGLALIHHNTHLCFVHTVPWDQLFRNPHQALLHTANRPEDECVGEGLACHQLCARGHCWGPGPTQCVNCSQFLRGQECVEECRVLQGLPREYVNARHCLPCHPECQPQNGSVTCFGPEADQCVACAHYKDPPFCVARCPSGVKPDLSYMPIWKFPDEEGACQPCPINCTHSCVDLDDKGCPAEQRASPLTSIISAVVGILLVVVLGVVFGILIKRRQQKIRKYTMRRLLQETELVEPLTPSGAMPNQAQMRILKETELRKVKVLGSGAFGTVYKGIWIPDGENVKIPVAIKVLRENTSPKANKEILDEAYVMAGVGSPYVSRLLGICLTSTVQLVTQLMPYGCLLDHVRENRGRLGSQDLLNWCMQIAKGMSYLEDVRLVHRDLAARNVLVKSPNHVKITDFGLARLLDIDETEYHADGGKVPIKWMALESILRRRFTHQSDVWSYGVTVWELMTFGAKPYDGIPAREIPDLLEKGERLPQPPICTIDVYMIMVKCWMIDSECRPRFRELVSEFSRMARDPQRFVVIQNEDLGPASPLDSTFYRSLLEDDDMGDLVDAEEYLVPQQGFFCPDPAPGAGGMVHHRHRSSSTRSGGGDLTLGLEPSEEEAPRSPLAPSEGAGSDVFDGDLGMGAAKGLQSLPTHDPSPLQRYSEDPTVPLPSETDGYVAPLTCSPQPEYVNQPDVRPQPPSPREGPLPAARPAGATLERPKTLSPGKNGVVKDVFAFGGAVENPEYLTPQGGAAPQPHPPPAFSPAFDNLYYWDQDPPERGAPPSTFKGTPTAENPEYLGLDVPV
T4 sequence (P51451 whole entry): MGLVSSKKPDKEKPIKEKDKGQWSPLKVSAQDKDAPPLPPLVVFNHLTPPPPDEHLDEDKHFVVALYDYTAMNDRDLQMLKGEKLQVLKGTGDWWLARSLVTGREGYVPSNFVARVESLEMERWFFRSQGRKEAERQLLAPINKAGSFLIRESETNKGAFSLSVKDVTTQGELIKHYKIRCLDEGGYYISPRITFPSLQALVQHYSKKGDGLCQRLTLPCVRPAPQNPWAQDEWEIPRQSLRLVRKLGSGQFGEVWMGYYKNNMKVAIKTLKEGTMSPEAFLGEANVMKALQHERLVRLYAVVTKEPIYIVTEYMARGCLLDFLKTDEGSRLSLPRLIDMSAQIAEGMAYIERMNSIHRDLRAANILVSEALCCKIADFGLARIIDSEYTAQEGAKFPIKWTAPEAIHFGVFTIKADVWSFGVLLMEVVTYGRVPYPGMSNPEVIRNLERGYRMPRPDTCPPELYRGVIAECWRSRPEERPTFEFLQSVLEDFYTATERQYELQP
T1 sequence (P00519 whole entry F317L): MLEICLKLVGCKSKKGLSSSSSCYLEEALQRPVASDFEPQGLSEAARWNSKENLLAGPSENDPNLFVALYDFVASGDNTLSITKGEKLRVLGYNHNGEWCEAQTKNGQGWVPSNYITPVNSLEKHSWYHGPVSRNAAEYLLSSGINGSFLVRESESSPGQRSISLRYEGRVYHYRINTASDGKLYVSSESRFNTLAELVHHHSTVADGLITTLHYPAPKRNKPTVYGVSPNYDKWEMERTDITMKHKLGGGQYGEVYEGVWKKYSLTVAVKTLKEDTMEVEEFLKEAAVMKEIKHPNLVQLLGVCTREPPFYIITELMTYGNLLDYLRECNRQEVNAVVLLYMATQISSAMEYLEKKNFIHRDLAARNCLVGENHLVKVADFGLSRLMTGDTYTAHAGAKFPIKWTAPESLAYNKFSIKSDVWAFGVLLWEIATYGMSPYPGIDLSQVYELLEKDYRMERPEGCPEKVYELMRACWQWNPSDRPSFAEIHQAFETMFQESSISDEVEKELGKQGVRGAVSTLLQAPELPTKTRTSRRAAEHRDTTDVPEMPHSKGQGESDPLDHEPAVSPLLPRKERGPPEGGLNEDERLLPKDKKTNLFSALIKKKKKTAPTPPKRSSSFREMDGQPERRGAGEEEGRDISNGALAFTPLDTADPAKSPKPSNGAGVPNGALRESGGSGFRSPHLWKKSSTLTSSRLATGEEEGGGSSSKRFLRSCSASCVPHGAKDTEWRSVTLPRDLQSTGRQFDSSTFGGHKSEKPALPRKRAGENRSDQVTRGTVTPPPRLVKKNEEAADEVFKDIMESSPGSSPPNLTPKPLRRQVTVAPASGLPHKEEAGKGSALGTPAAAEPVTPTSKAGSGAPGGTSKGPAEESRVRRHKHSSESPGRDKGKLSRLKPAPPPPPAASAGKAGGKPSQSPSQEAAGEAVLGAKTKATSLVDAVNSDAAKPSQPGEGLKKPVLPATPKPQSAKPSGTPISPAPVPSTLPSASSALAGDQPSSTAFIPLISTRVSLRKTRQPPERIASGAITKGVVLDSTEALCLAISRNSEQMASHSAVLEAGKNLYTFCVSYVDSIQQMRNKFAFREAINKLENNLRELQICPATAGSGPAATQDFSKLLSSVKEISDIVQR
T14 sequence (Q15349 59-318 limits assumed): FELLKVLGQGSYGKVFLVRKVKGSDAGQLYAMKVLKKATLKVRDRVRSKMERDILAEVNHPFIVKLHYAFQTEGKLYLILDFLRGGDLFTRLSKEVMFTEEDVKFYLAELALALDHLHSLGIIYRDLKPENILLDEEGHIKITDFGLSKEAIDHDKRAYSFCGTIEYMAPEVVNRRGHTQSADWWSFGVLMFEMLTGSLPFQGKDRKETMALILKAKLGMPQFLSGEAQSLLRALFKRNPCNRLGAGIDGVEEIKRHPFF
T13 sequence (Q9P2K8 590-1001 S808G limits assumed): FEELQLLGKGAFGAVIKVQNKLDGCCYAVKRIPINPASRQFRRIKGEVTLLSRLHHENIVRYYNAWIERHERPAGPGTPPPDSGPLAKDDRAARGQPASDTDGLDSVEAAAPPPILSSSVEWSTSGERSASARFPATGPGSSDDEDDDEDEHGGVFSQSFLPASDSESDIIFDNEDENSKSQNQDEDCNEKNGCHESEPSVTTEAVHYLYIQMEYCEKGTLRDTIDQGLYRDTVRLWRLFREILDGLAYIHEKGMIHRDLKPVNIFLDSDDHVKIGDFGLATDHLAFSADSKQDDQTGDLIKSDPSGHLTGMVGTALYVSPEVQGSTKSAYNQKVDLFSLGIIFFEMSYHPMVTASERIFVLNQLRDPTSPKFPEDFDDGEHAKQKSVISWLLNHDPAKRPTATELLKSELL
T12 sequence (P22607 472-761 G697C limits assumed): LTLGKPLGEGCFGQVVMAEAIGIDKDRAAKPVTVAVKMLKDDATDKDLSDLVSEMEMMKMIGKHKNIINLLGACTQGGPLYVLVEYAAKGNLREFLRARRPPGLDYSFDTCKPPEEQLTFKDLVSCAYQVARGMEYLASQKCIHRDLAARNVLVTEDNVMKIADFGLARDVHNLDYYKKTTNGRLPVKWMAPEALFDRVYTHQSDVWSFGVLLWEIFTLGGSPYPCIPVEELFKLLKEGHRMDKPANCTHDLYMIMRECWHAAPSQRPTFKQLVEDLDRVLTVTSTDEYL

For `O=C(Nc1ccc(Oc2ncnc3[nH]ncc23)cc1)Nc1ccc(Cl)c(C(F)(F)F)c1` [Compound 1, 1-(4-(1H-pyrazolo[3,4-d]pyrimidin-4-yloxy)phenyl)-3-(4-chloro-3-(trifluoromethyl)phenyl)urea], the IC50 [1] is given as over 10 µM.

`CC(C)(C)c1cc(NC(=O)Nc2ccc(Oc3ncnc4[nH]ncc34)c(F)c2)no1` [SKLB-677, 1-(4-(1H-pyrazolo[3,4-d]pyrimidin-4-yloxy)-3-fluorophenyl)-3-(5-tert-butylisoxazol-3-yl)urea] gave a remaining binding at 10 µM [2] of 13%, a remaining binding at 10 µM [3] of 13% and a remaining binding at 10 µM [4] of 100%. It also gave a remaining binding at 10 µM [5] of 0.95%, a remaining binding at 10 µM [6] of 100% and a remaining binding at 10 µM [7] of 59%. It also gave a remaining binding at 10 µM [8] of 100%, a remaining binding at 10 µM [9] of 1% and a remaining binding at 10 µM [10] of 100%. The remaining binding at 10 µM [11] was 98%, the remaining binding at 10 µM [12] was 7.2% and the remaining binding at 10 µM [13] was 22%. It also gave a remaining binding at 10 µM [14] of 20%, a remaining binding at 10 µM [15] of 41% and a remaining binding at 10 µM [16] of 9.2%. The remaining binding at 10 µM [17] was 0.95%, the remaining binding at 10 µM [18] was 0.35% and the remaining binding at 10 µM [19] was 51%. The Kd [20] was 0.0027 µM, the IC50 ([21]; Homo sapiens, PBMC, sample #7, normal PBMCs) was over 10 µM and the IC50 ([21]; sample #8, normal PBMCs) was over 10 µM. The IC50 ([21]; sample #9, normal PBMCs) was over 10 µM and the Kd [22] was 0.0013 µM.
